Values quoted from earlier work in patent publication US20090298951A1, “Nontoxic Biocidal Composition And Method Thereof” (priority 2008, published 2009).

Settings: 20° C.

## C/C=C/C=C/C(=O)[O-].[K+] [potassium sorbate, potassium (E,E)-hexa-2,4-dienoate]
  soluble in water: 58.2%
